{"source": "patent US20260209250A1", "about": "“CRYSTAL FORM OF KRAS G12D INHIBITOR AND PREPARATION METHOD THEREFOR” (priority 2022, published 2026)", "key": {"AGS cells": {"tested_on": "AGS cells", "assay": "Inhibition of 3D proliferation of AGS cells", "format": "cell-based", "settings": "Homo sapiens, 120 h, CellTiter-Glo 3D", "procedure": "(§1) The inhibitory effect of compound 1-p1 on the KRAS target was evaluated by assessing the inhibitory effect of compound 1-p1 on the 3D proliferation of GP2d and AGS cells.\nAGS cells (Nanjing Cobioer, CBP60476) were cultured in a complete culture medium, namely an RPMI1640 culture medium (Hyclone, SH30809.01) containing 10% fetal bovine serum (Corning, 35-076-CV). On the first day of the experiment, the AGS cells were seeded into a 96-well low-adsorption plate (Corning, CLS7007-24EA) with a complete culture medium at a density of 1000 cells/well, with each well containing 90 μL of a cell suspension. The plate was centrifuged at 2000 rpm for 5 min at room temperature and then incubated overnight in a 5% CO2 cell incubator at 37° C.\n(§2) The next day, the test compound, serially diluted in a complete culture medium, was added at 10 μL/well. The final concentrations of the compound for GP2d cells were 9 concentration points obtained by 3-fold serial dilution from 1 μM, and the final concentrations of the compound for AGS cells were 9 concentration points obtained by 3-fold serial dilution from 10 μM. A blank control containing 0.5% DMSO was set for both types of cells. […] The luminescence signal values were obtained using a multi-mode microplate reader (PerkinElmer, ENVISION).\n(§3) The IC50 values for the inhibitory activity of the compound were calculated using Graphpad Prism software."}, "[1]": {"tested_on": "ERK phosphorylation in AGS cells", "assay": "Inhibition of ERK phosphorylation in AGS cells (HTRF method)", "format": "cell-based", "settings": "Homo sapiens, 1 h incubation, phosphorylated ERK/total ERK ratio", "procedure": "In the experiment, the inhibitory effect of the compound on the KRAS target was evaluated by assessing the inhibitory effect of compound 1-p1 on ERK phosphorylation in cells and based on the IC50 value.\nAGS cells (Nanjing Cobioer, CBP60476) were cultured in an RPMI1640 (Hyclone, SH30809.01) complete culture medium containing 10% fetal bovine serum. On the first day of the experiment, the AGS cells were seeded into a 96-well plate with a complete culture medium at a density of 40000 cells/well, with each well containing 190 μL of a cell suspension. The plate was incubated overnight in a 5% CO2 cell incubator at 37° C.\nThe next day, the test compound, serially diluted in a complete culture medium, was added at 10 μL/well. The final concentrations of the compound were 9 concentration points obtained by 5-fold serial dilution from 10 μM. A blank control containing 0.5% DMSO was set. The plate was incubated in a 5% CO2 cell incubator at 37° C. for 1 h. […]\nOn the third day, the fluorescence values at an excitation wavelength of 337 nm and emission wavelengths of 665 nm and 620 nm were obtained using an ENVISION multi-mode microplate reader (PerkinElmer, ENVISION).\nThe IC50 value for the inhibitory activity of the compound was calculated using Graphpad Prism software based on the compound concentration and the phosphorylated ERK/total ERK ratio."}, "GP2d cells": {"tested_on": "GP2d cells", "assay": "Inhibition of 3D proliferation of GP2d cells", "format": "cell-based", "settings": "120 h, CellTiter-Glo 3D", "procedure": "as §1\nGP2d cells (Nanjing Cobioer, CBP60010) were cultured in a complete culture medium, namely a DMEM/high glucose culture medium (Hyclone, SH30243.01) containing 10% fetal bovine serum (Corning, 35-076-CV). On the first day of the experiment, the GP2d cells were seeded into a 96-well low-adsorption plate (Corning, CLS7007-24EA) with a complete culture medium at a density of 1000 cells/well, with each well containing 90 μL of a cell suspension. The plate was centrifuged at 2000 rpm for 5 min at room temperature and then incubated overnight in a 5% CO2 cell incubator at 37° C.\nas §2, §3"}, "[2]": {"assay": "Crystal form stability study (influencing factor experiments)", "format": "physicochemical", "procedure": "Samples of the crystal forms A, B, C, I, J, and K of the compound represented by formula (I) were taken, spread in open containers, and left to stand under conditions of light exposure (4500 Lux), high temperatures (40° C. and 60° C.), and high humidities (RH 75% and RH 92.5%) for 30 days to investigate their stability, and the results are shown in Table 16."}, "[3]": {"assay": "Long-term/accelerated stability", "format": "physicochemical"}, "[4]": {"settings": "40° C., 10 days, open container"}, "[5]": {"settings": "40° C., 30 days, open container"}, "[6]": {"settings": "60° C., 10 days, open container"}, "[7]": {"settings": "60° C., 30 days, open container"}, "[8]": {"settings": "75% RH, 10 days, open container"}, "[9]": {"settings": "75% RH, 30 days, open container"}, "[10]": {"settings": "92.5% RH, 5 days, open container"}, "[11]": {"settings": "92.5% RH, 10 days, open container"}, "[12]": {"settings": "92.5% RH, 30 days, open container"}, "[13]": {"settings": "light exposure (4500 Lux), 5 days, open container"}, "[14]": {"settings": "light exposure (4500 Lux), 10 days, open container"}, "[15]": {"settings": "light exposure (4500 Lux), 30 days, open container"}}, "data": [{"smiles": "CCc1c(F)ccc2cc(O)cc(-c3nc4c5c(nc(OC[C@@]67CCCN6C[C@H](F)C7)nc5c3F)N3C[C@H]5CC[C@H](N5)[C@H]3CO4)c12", "note": "[Compound 1-p1, 5-Ethyl-6-fluoro-4-((5aS,6S,9R)-1-fluoro-12-(((2R,7aS)-2-fluorotetrahydro-1H-pyrrolizin-7a(5H)-yl)methoxy)-5a,6,7,8,9,10-hexahydro-5H-4-oxa-3,10a,11,13,14-pentaaza-6,9-methanonaphtho[1,8-ab]heptalen-2-yl)naphthalen-2-ol]", "values": [{"measurement": "IC50", "setting": "AGS cells", "value": 5.8, "unit": "nM"}, {"measurement": "IC50", "setting": "[1]", "value": 0.4, "unit": "nM"}, {"measurement": "IC50", "setting": "GP2d cells", "value": 0.9, "unit": "nM"}]}, {"smiles": "CCc1c(F)ccc2cc(O)cc(-c3nc4c5c(nc(OC[C@@]67CCCN6C[C@H](F)C7)nc5c3F)N3C[C@H]5CC[C@H](N5)[C@H]3CO4)c12", "note": "[Crystal form K, 5-Ethyl-6-fluoro-4-((5aS,6S,9R)-1-fluoro-12-(((2R,7aS)-2-fluorotetrahydro-1H-pyrrolizin-7a(5H)-yl)methoxy)-5a,6,7,8,9,10-hexahydro-5H-4-oxa-3,10a,11,13,14-pentaaza-6,9-methanonaphtho[1,8-ab]heptalen-2-yl)naphthalen-2-ol]", "values": [{"measurement": "Color and state", "setting": "[2]; 40° C., 5 days, open container", "value": "Off-white solid"}, {"measurement": "Crystal form", "setting": "[2]; 40° C., 5 days, open container", "value": "Did not change"}, {"measurement": "Purity %", "setting": "[2]; 40° C., 5 days, open container", "value": 99.2, "unit": "%"}, {"measurement": "Color and state", "setting": "[2]; [4]", "value": "Off-white solid"}, {"measurement": "Crystal form", "setting": "[2]; [4]", "value": "Did not change"}, {"measurement": "Purity %", "setting": "[2]; [4]", "value": 98.5, "unit": "%"}, {"measurement": "Color and state", "setting": "[2]; [5]", "value": "Off-white solid"}, {"measurement": "Crystal form", "setting": "[2]; [5]", "value": "Did not change"}, {"measurement": "Purity %", "setting": "[2]; [5]", "value": 97.0, "unit": "%"}, {"measurement": "Color and state", "setting": "[2]; 60° C., 5 days, open container", "value": "Off-white solid"}, {"measurement": "Crystal form", "setting": "[2]; 60° C., 5 days, open container", "value": "Did not change"}, {"measurement": "Purity %", "setting": "[2]; 60° C., 5 days, open container", "value": 99.1, "unit": "%"}, {"measurement": "Color and state", "setting": "[2]; [6]", "value": "Off-white solid"}, {"measurement": "Crystal form", "setting": "[2]; [6]", "value": "Did not change"}, {"measurement": "Purity %", "setting": "[2]; [6]", "value": 98.5, "unit": "%"}, {"measurement": "Color and state", "setting": "[2]; [7]", "value": "Off-white solid"}, {"measurement": "Crystal form", "setting": "[2]; [7]", "value": "Did not change"}, {"measurement": "Purity %", "setting": "[2]; [7]", "value": 97.0, "unit": "%"}, {"measurement": "Color and state", "setting": "[2]; 75% RH, 5 days, open container", "value": "Off-white solid"}, {"measurement": "Crystal form", "setting": "[2]; 75% RH, 5 days, open container", "value": "Did not change"}, {"measurement": "Purity %", "setting": "[2]; 75% RH, 5 days, open container", "value": 99.8, "unit": "%"}, {"measurement": "Color and state", "setting": "[2]; [8]", "value": "Off-white solid"}, {"measurement": "Crystal form", "setting": "[2]; [8]", "value": "Did not change"}, {"measurement": "Purity %", "setting": "[2]; [8]", "value": 99.7, "unit": "%"}, {"measurement": "Color and state", "setting": "[2]; [9]", "value": "Off-white solid"}, {"measurement": "Crystal form", "setting": "[2]; [9]", "value": "Did not change"}, {"measurement": "Purity %", "setting": "[2]; [9]", "value": 99.7, "unit": "%"}, {"measurement": "Color and state", "setting": "[2]; [10]", "value": "Off-white solid"}, {"measurement": "Crystal form", "setting": "[2]; [10]", "value": "Did not change"}, {"measurement": "Purity %", "setting": "[2]; [10]", "value": 99.8, "unit": "%"}, {"measurement": "Color and state", "setting": "[2]; [11]", "value": "Off-white solid"}, {"measurement": "Crystal form", "setting": "[2]; [11]", "value": "Did not change"}, {"measurement": "Purity %", "setting": "[2]; [11]", "value": 99.7, "unit": "%"}, {"measurement": "Color and state", "setting": "[2]; [12]", "value": "Off-white solid"}, {"measurement": "Crystal form", "setting": "[2]; [12]", "value": "Did not change"}, {"measurement": "Purity %", "setting": "[2]; [12]", "value": 99.7, "unit": "%"}, {"measurement": "Color and state", "setting": "[2]; Initial, 0 days", "value": "Off-white solid"}, {"measurement": "Crystal form", "setting": "[2]; Initial, 0 days", "value": "Crystal form K"}, {"measurement": "Purity %", "setting": "[2]; Initial, 0 days", "value": 99.8, "unit": "%"}, {"measurement": "Physical and chemical properties (conclusion of influencing factor experiments)", "setting": "[2]; high temperatures and high humidities for 30 days", "value": "good physical and chemical properties"}, {"measurement": "Color and state", "setting": "[2]; [13]", "value": "Off-white solid"}, {"measurement": "Crystal form", "setting": "[2]; [13]", "value": "Did not change"}, {"measurement": "Purity %", "setting": "[2]; [13]", "value": 99.3, "unit": "%"}, {"measurement": "Color and state", "setting": "[2]; [14]", "value": "Off-white solid"}, {"measurement": "Crystal form", "setting": "[2]; [14]", "value": "Did not change"}, {"measurement": "Purity %", "setting": "[2]; [14]", "value": 98.9, "unit": "%"}, {"measurement": "Color and state", "setting": "[2]; [15]", "value": "Off-white solid"}, {"measurement": "Crystal form", "setting": "[2]; [15]", "value": "Did not change"}, {"measurement": "Purity %", "setting": "[2]; [15]", "value": 97.9, "unit": "%"}, {"measurement": "Purity % 1 month", "setting": "[3]; 25° C./60% RH", "value": 99.7, "unit": "%"}, {"measurement": "Purity % 2 months", "setting": "[3]; 25° C./60% RH", "value": 99.8, "unit": "%"}, {"measurement": "Purity % 6 months", "setting": "[3]; 25° C./60% RH", "value": 99.7, "unit": "%"}, {"measurement": "Purity % Initial", "setting": "[3]; 25° C./60% RH", "value": 99.8, "unit": "%"}, {"measurement": "Purity % 1 month", "setting": "[3]; 40° C./75% RH", "value": 99.7, "unit": "%"}, {"measurement": "Purity % 2 months", "setting": "[3]; 40° C./75% RH", "value": 99.7, "unit": "%"}, {"measurement": "Purity % 6 months", "setting": "[3]; 40° C./75% RH", "value": 99.4, "unit": "%"}, {"measurement": "Purity % Initial", "setting": "[3]; 40° C./75% RH", "value": 99.8, "unit": "%"}]}]}
